Test results as given in patent US9206130B2, “Quinoline derivatives as AXL kinase inhibitors” (Max-Planck-Gesellschaft zur Förderung der Wissenschaften …, priority 2008, dated 2015).
Structures can show the parent of a compound that is named as a salt.

What was measured:
[1] = molecular target: T1, wild type AXL (wtAXL) receptor tyrosine kinase (Homo sapiens, UniProt P30530); test: NIH-3T3-AXL cellular tyrosine kinase assay (inhibition of AXL phosphorylation); format: cell-based; conditions: AXL phosphorylation in NIH-3T3-AXL (clone 22) cells, serum-depleted, 2 h with compound, immunoprecipitation / anti-phosphotyrosine blot
T1 construct: WtAXL cDNA was cloned into vector pLXSN(ESK) and transfected into Phoenix E packaging cells; expressed in transfected cells; host or cells: NIH3T3 N7 mouse fibroblasts, retrovirally infected (clone 22)
T1 sequence (P30530 26-894): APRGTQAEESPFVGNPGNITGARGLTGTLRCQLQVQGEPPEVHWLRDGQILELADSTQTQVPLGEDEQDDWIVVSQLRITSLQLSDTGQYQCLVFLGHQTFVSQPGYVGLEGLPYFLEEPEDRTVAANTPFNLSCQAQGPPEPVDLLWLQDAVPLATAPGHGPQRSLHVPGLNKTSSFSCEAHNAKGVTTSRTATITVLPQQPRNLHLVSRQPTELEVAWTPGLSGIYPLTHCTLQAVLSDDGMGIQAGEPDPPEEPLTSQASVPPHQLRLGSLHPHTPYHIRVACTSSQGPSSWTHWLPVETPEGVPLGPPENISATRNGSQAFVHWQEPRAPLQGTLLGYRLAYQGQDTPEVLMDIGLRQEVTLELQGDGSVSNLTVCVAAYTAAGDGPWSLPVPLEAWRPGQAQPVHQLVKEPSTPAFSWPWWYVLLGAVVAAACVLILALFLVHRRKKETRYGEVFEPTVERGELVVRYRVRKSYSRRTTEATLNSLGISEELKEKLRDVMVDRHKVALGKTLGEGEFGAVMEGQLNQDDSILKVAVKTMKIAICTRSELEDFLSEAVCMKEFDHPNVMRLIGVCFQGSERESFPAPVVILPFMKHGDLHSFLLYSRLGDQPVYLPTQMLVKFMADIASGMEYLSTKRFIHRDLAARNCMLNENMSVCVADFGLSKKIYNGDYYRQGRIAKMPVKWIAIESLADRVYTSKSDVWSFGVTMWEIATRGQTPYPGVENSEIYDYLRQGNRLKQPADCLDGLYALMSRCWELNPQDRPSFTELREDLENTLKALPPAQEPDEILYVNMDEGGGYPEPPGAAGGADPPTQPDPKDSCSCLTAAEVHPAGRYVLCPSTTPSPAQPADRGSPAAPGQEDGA
Method: 3) Inhibitory Activity of Compounds on Axl Phosphorylation in NIH-3T3-AXL Cellular Tyrosine Kinase Assay
The viral supernatant was collected and used to infect target cells NIH3T3 N7. Monoclonal NIH3T3-AXL cell lines stably expressing wtAXL were generated by selecting retrovirally infected cells in medium containing puromycin (2 μg/ml) and subsequent clonal separation.
NIH-3T3-AXL Cellular Kinase Assay
Serial dilutions of compounds were added, and the cells were further incubated or 2 h. […] The clarified cell lysate (10 min at 13000 rpm at 4° C.) were used for immunoprecipitation. Equal amounts of protein were mixed with 2 μg anti-AXL polyclonal antibody (homemade) and 20 μl Protein A sepharose beads, and rotated for 6 hr at 4° C. After immunoprecipitation, the beads were washed three times with 1×HNTG (50 mM HEPES (pH 7.5), 150 mM NaCl, 10% Glycerol, 0.2% Triton X-100). The final pellet was suspended in 20 μl 2× Laemmli buffer, and boiled for 5 min at 100° C. […] The membrane was then incubated with anti-phosphotyrosine antibody (4G10) overnight at 4° C. followed by washing with 1×TBST buffer three times. After incubating membrane with HRP-conjugated anti-mouse secondary antibody for 1 hour at room temperature followed by washing with 1×TBST buffer three times, the proteins were visualized by ECL.

Row | Compound | IC50 [1] [nM] | melting point [°C]
1 | COc1cc2c(Oc3ccc(NS(=O)(=O)c4c(F)cccc4F)cc3F)ccnc2cc1OCCCN1CCC(C)CC1 [Example D20, 2,6-Difluoro-N-(3-fluoro-4-{6-methoxy-7-[3-(4-methyl-piperidin-1-yl)-propoxy]-quinolin-4-yloxy}-phenyl)-benzenesulfonamide] | 29 | 200 to 203
2 | COc1cc2c(Oc3ccc(NS(=O)(=O)c4ccc(OC)c5ccccc45)cc3F)ccnc2cc1OCCN1CCOCC1 [Example D13, 4-Methoxy-naphthalene-1-sulfonic acid {3-fluoro-4-[6-methoxy-7-(2-morpholin-4-yl-ethoxy)-quinolin-4-yloxy]-phenyl}-amide] | 57 | 189 to 190
3 | Cc1cc(Oc2ccc(NS(=O)(=O)c3ccc(C)s3)c(F)c2)c2cc(F)ccc2n1 [Example B7, 5-Methyl-thiophene-2-sulfonic acid [2-fluoro-4-(6-fluoro-2-methyl-quinolin-4-yloxy)-phenyl]-amide] | > 10000 | 151 to 153
4 | Cc1cc(Oc2ccc(NS(=O)(=O)c3cccc(Br)c3)cc2)c2cc(F)ccc2n1 [Example B14, 3-Bromo-N-[4-(6-fluoro-2-methyl-quinolin-4-yloxy)-phenyl]-benzenesulfonamide] | < 1000 | 183 to 184
5 | COc1cc2c(Oc3ccc(NS(=O)(=O)c4cccc(-c5ccccc5)c4)cc3F)ccnc2cc1OCCCN1CCC(C)CC1 [Example D29, Biphenyl-3-sulfonic acid (3-fluoro-4-{6-methoxy-7-[3-(4-methyl-piperidin-1-yl)-propoxy]-quinolin-4-yloxy}-phenyl)-amide] | 178 | 196 to 198
6 | COc1cc(S(=O)(=O)Nc2ccc(Oc3ccnc4cc(OC)c(OC)cc34)cc2)ccc1F [Example A116, N-[4-(6,7-Dimethoxy-quinolin-4-yloxy)-phenyl]-4-fluoro-3-methoxy-benzenesulfonamide] | > 3000 | 222 to 224
7 | COc1cc2nccc(Oc3ccc(NS(=O)(=O)c4ccc(F)c(Cl)c4)c(F)c3)c2cc1OC [Example A12, 3-Chloro-N-[4-(6,7-dimethoxy-quinolin-4-yloxy)-2-fluoro-phenyl]-4-fluoro-benzenesulfonamide] | 1260 | 208 to 210
8 | COc1cc2c(Oc3ccc(NS(=O)(=O)c4cccc(-c5ccccc5)c4)cc3F)ccnc2cc1OCCCN [Example D03, Biphenyl-3-sulfonic acid {4-[7-(3-amino-propoxy)-6-methoxy-quinolin-4-yloxy]-3-fluoro-phenyl}-amide hydrochloride] | 837 | 
9 | COc1cc2c(Oc3ccc(NS(=O)(=O)c4cccc5ccccc45)cc3F)ccnc2cc1OCCCN [Example D02, Naphthalene-1-sulfonic acid {4-[7-(3-amino-propoxy)-6-methoxy-quinolin-4-yloxy]-3-fluoro-phenyl}-amide hydrochloride] | 695 | 
10 | COc1cc2c(Oc3ccc(NS(=O)(=O)c4cc(F)ccc4F)cc3F)ccnc2cc1OCCCN1CCOCC1 [Example D41, 2,5-Difluoro-N-{3-fluoro-4-[6-methoxy-7-(3-morpholin-4-yl-propoxy)-quinolin-4-yloxy]-phenyl}-benzenesulfonamide] |  | 192 to 195
11 | COc1cc2nccc(Oc3ccc(NS(=O)(=O)c4ccccc4)c(F)c3)c2cc1OC |  | 234 to 235
12 | COc1cc2nccc(Oc3ccc(NS(=O)(=O)c4ccccc4C(F)(F)F)cc3OC)c2cc1OC |  | 198 to 199
13 | COc1cc2c(Oc3ccc(NS(=O)(=O)c4c(Cl)cccc4Cl)cc3F)ccnc2cc1OCCCN1CCOCC1 [Example D47, 2,6-Dichloro-N-{3-fluoro-4-[6-methoxy-7-(3-morpholin-4-yl-propoxy)-quinolin-4-yloxy]-phenyl}-benzenesulfonamide] |  | 194 to 196
14 | COc1cc2nccc(Oc3ccc(NS(=O)(=O)c4ccccc4C)c(F)c3)c2cc1OC |  | 218 to 220
15 | COc1cc2c(Oc3ccc(NS(=O)(=O)c4ccccc4C(F)(F)F)cc3F)ccnc2cc1OCCN1CCOCC1 |  | 178 to 180
16 | COc1cc2nccc(Oc3ccc(NS(=O)(=O)c4c(Cl)cccc4Cl)c(F)c3)c2cc1OC |  | 217 to 218
17 | COc1cc2nccc(Oc3ccc(NS(=O)(=O)c4cccc(C(F)(F)F)c4)c(F)c3)c2cc1OC |  | 230 to 231

The next lines start with the values.

Row | IC50 [1] [nM] | melting point [°C] | Compound
18 | > 3000 | 213 to 215 | COc1cc2nccc(Oc3ccc(NS(=O)(=O)c4ccccc4OC)c(F)c3)c2cc1OC [Example A52, N-[4-(6,7-Dimethoxy-quinolin-4-yloxy)-2-fluoro-phenyl]-2-methoxy-benzenesulfonamide]
19 | > 10000 | 255 to 257 | COc1cc2nccc(Oc3ccc(NS(=O)(=O)c4cc(Cl)ccc4OC)cc3)c2cc1OC [Example A68, 5-Chloro-N-[4-(6,7-dimethoxy-quinolin-4-yloxy)-phenyl]-2-methoxy-benzenesulfonamide]
20 | < 1000 | 193 to 195 | COc1cc2nccc(Oc3ccc(NS(=O)(=O)c4cc(Cl)cc(Cl)c4OC)c(F)c3)c2cc1OC [Example A50, 3,5-Dichloro-N-[4-(6,7-dimethoxy-quinolin-4-yloxy)-2-fluoro-phenyl]-2-methoxy-benzenesulfonamide]
21 |  | 179 to 181 | COc1cc2c(Oc3ccc(NS(=O)(=O)c4ccccc4F)cc3F)ccnc2cc1OCCCN1CCOCC1 [Example D45, 2-Fluoro-N-{3-fluoro-4-[6-methoxy-7-(3-morpholin-4-yl-propoxy)-quinolin-4-yloxy]-phenyl}-benzenesulfonamide]
22 |  | 103 to 107 | COc1cc2c(Oc3ccc(NS(=O)(=O)c4cc(F)ccc4F)cc3F)ccnc2cc1OCCCN1CCCC(C)C1 (stereo not drawn) [Example D36, 2,5-Difluoro-N-(3-fluoro-4-{6-methoxy-7-[3-(3-methyl-piperidin-1-yl)-propoxy]-quinolin-4-yloxy}-phenyl)-benzenesulfonamide]
23 | 364 |  | COc1cc2c(Oc3ccc(NS(=O)(=O)c4ccccc4OC(F)(F)F)cc3F)ccnc2cc1OCCCN [Example D15, N-{4-[7-(3-Amino-propoxy)-6-methoxy-quinolin-4-yloxy]-3-fluoro-phenyl}-2-trifluoromethoxy-benzenesulfonamide hydrochloride]
24 | > 10000 |  | COc1cc2nccc(Oc3ccc(NS(=O)(=O)c4ccc(Cl)cc4F)cc3OC)c2cc1OC [Example A141, 4-Chloro-N-[4-(6,7-dimethoxy-quinolin-4-yloxy)-3-methoxy-phenyl]-2-fluoro-benzenesulfonamide]
25 |  | 224 to 227 | COc1cc2nccc(Oc3ccc(NS(=O)(=O)c4ccccc4C(F)(F)F)cc3)c2cc1OC
26 |  | 183 to 184 | COc1cc2c(Oc3ccc(NS(=O)(=O)c4ccccc4OC(F)(F)F)cc3F)ccnc2cc1OCCCN1CCOCC1 [Example D40, N-{3-Fluoro-4-[6-methoxy-7-(3-morpholin-4-yl-propoxy)-quinolin-4-yloxy]-phenyl}-2-trifluoromethoxy-benzenesulfonamide]
27 |  | 223 to 225 | COc1cc2c(Oc3ccc(NS(=O)(=O)c4cc(F)ccc4F)cc3F)ccnc2cc1OCCCN1CCC(C)CC1
28 |  | 228 to 230 | COc1cc2nccc(Oc3ccc(NS(=O)(=O)c4cc(Cl)ccc4Cl)c(F)c3)c2cc1OC
29 |  | 200 to 203 | COc1cc2c(Oc3ccc(NS(=O)(=O)c4ccc(Cl)cc4F)cc3F)ccnc2cc1OCCCN1CCOCC1 [Example D43, 4-Chloro-2-fluoro-N-{3-fluoro-4-[6-methoxy-7-(3-morpholin-4-yl-propoxy)-quinolin-4-yloxy]-phenyl}-benzenesulfonamide]
